{
  "source": "patent US20050256182A1",
  "about": "“Formulations of anti-pain agents and methods of using the same” (priority 2004, published 2005)",
  "assay": "Crossover PK study: sumatriptan plasma levels (LC/MS/MS) after ID, junctional or SC administration; Tmax, Cmax, AUC, relative F",
  "type": "in vivo",
  "conditions": "Yucatan miniswine, mean; for AUC 0-10 min: Yucatan, minipig, plasma, AUC 10 min.",
  "key": {"[1]": {"conditions": "3 × 3 mm × 34 g, 12 mg/ml, 5 minutes metered bolus"}, "[2]": {"conditions": "SC, 12 mg/ml (reference condition)"}},
  "procedure": "Percent (%) relative Bioavailability (F) for each dosing condition was calculated compared to the SC condition: [formula]",
  "data": [
    {"smiles": "CNS(=O)(=O)Cc1ccc2[nH]cc(CCN(C)C)c2c1", "note": "[sumatriptan, 3-[2-(dimethylamino)ethyl]-N-methyl-indole-5-methanesulfonamide]", "values": [
      {"measurement": "C max", "setting": "1 × 2 mm × 30 g, 30 mg/ml", "result": 849.333, "unit": "ng/mL"},
      {"measurement": "C max", "setting": "1 × 3 mm × 30 g, 30 mg/ml", "result": 836.667, "unit": "ng/mL"},
      {"measurement": "C max", "setting": "[1]", "result": 705.833, "unit": "ng/mL"},
      {"measurement": "rel. F 10 min", "setting": "[2]", "result": 100.000, "unit": "%"},
      {"measurement": "rel. F Total", "setting": "[2]", "result": 100.000, "unit": "%"},
      {"measurement": "AUC 0-10 min", "setting": "1 × 1.5 mm × 30 g, 0 mg/ml", "result": 84.7, "unit": "ng·h/mL"},
      {"measurement": "AUC 0-10 min", "setting": "1 × 2 mm × 30 g, 30 mg/ml", "result": 75.2, "unit": "ng·h/mL"},
      {"measurement": "AUC 0-10 min", "setting": "1 × 3 mm × 30 g, 30 mg/ml", "result": 86.4, "unit": "ng·h/mL"},
      {"measurement": "AUC 0-10 min", "setting": "3 × 2 mm × 34 g, 30 mg/ml", "result": 69.5, "unit": "ng·h/mL"},
      {"measurement": "AUC 0-10 min", "setting": "[1]", "result": 52.8, "unit": "ng·h/mL"},
      {"measurement": "AUC 0-10 min", "setting": "3 × 3 mm × 34 g, 30 mg/ml, 2 minute metered bolus", "result": 53.4, "unit": "ng·h/mL"},
      {"measurement": "AUC 0-10 min", "setting": "iv, 12 mg/ml", "result": 59.8, "unit": "ng·h/mL"},
      {"measurement": "AUC 0-10 min", "setting": "sc, 12 mg/ml", "result": 45.3, "unit": "ng·h/mL"}
    ]}
  ]
}
